Assay results published in article PMC5218480 (PLoS ONE, 2017).

System: MV-4-11 cells
Assay: Gene expression microarray analysis (Affymetrix PrimeView) and GSEA
Type: cell-based, human
Parameters: RFU PODN (11730768_x_at) / Fold change /veh PODN (11730768_x_at) / RFU LINC00158 (11744669_a_at) / Fold change /veh LINC00158 (11744669_a_at) / RFU DUSP10 (11751237_a_at) / Fold change /veh DUSP10 (11751237_a_at) / RFU ID3 (11757404_x_at) / Fold change /veh ID3 (11757404_x_at) / RFU PLEKHG5 (11737974_s_at) / Fold change /veh PLEKHG5 (11737974_s_at) / RFU LRRC4B (11730491_at) / Fold change /veh LRRC4B (11730491_at) / RFU GIMAP4 (11747438_a_at) / Fold change /veh GIMAP4 (11747438_a_at) / RFU KRT8 (11758183_x_at) / Fold change /veh KRT8 (11758183_x_at) / RFU CNN1 (11734310_a_at) / Fold change /veh CNN1 (11734310_a_at) / RFU VPS37D (11726825_at) / Fold change /veh VPS37D (11726825_at) / RFU C10orf10 (11716522_x_at) / Fold change /veh C10orf10 (11716522_x_at) / RFU KIR2DL2 /// KIR2DL4 /// KIR2DL5A /// KIR2DL5B /// KIR2DS1 /// KIR2DS2 /// KIR2DS3 /// KIR2DS4 /// KIR3DL3 /// KIR3DL3 /// KIR3DS1 (11738374_at) / Fold change /veh KIR2DL2 /// KIR2DL4 /// KIR2DL5A /// KIR2DL5B /// KIR2DS1 /// KIR2DS2 /// KIR2DS3 /// KIR2DS4 /// KIR3DL3 /// KIR3DL3 /// KIR3DS1 (11738374_at) / RFU C1QL1 (11718748_at) / Fold change /veh C1QL1 (11718748_at) / RFU TMPRSS4 (11747572_a_at) / Fold change /veh TMPRSS4 (11747572_a_at) / RFU HAMP (11756126_x_at) / Fold change /veh HAMP (11756126_x_at) / RFU RNFT2 (11725882_a_at) / Fold change /veh RNFT2 (11725882_a_at) / RFU NR4A2 (11747474_a_at) / Fold change /veh NR4A2 (11747474_a_at) / RFU ABCC12 (11746883_a_at) / Fold change /veh ABCC12 (11746883_a_at) / RFU TMEM136 (11760407_x_at) / Fold change /veh TMEM136 (11760407_x_at) / RFU CLDN22 /// WWC2 (11732394_at) / Fold change /veh CLDN22 /// WWC2 (11732394_at) / RFU HLA-DPB1 (11760878_x_at) / Fold change /veh HLA-DPB1 (11760878_x_at) / RFU SPINT1 (11716480_a_at) / Fold change /veh SPINT1 (11716480_a_at) / RFU GAP43 (11754022_s_at) / Fold change /veh GAP43 (11754022_s_at) / RFU A4GNT (11735810_at) / Fold change /veh A4GNT (11735810_at) / RFU PRB3 (11715151_x_at) / Fold change /veh PRB3 (11715151_x_at) / RFU TUBB4B (11761932_at) / Fold change /veh TUBB4B (11761932_at) / RFU CAPN14 (11732068_a_at) / Fold change /veh CAPN14 (11732068_a_at) / RFU TMCC2 (11721928_a_at) / Fold change /veh TMCC2 (11721928_a_at) / RFU IRGQ (11745062_a_at) / Fold change /veh IRGQ (11745062_a_at) / RFU FAM174B (11720279_a_at) / Fold change /veh FAM174B (11720279_a_at) / RFU TMPRSS4 (11748680_a_at) / Fold change /veh TMPRSS4 (11748680_a_at) / RFU FAM212B (11763350_a_at) / Fold change /veh FAM212B (11763350_a_at) / RFU PLEKHG5 (11743358_a_at) / Fold change /veh PLEKHG5 (11743358_a_at) / RFU ZSCAN30 (11745921_a_at) / Fold change /veh ZSCAN30 (11745921_a_at) / RFU CMKLR1 (11741424_a_at) / Fold change /veh CMKLR1 (11741424_a_at) / RFU LOC101060620 /// MAPK8IP1 (11723275_at) / Fold change /veh LOC101060620 /// MAPK8IP1 (11723275_at) / RFU SPTSSB (11747773_x_at) / Fold change /veh SPTSSB (11747773_x_at) / RFU PRSS12 (11739890_at) / Fold change /veh PRSS12 (11739890_at) / RFU BIN1 (11741810_x_at) / Fold change /veh BIN1 (11741810_x_at) / RFU WNT11 (11732464_a_at) / Fold change /veh WNT11 (11732464_a_at) / RFU C10orf10 (11716521_a_at) / Fold change /veh C10orf10 (11716521_a_at) / RFU C5orf56 (11738089_at) / Fold change /veh C5orf56 (11738089_at) / RFU CYB561 (11721691_x_at) / Fold change /veh CYB561 (11721691_x_at) / RFU ANKRD19P (11752326_a_at) / Fold change /veh ANKRD19P (11752326_a_at) / RFU OR2T12 /// OR2T33 /// OR2T8 (11738714_s_at) / Fold change /veh OR2T12 /// OR2T33 /// OR2T8 (11738714_s_at) / RFU VCAN (11748164_a_at) / Fold change /veh VCAN (11748164_a_at) / RFU JSRP1 (11732532_at) / Fold change /veh JSRP1 (11732532_at) / RFU KRTAP10-11 (11738290_x_at) / Fold change /veh KRTAP10-11 (11738290_x_at) / RFU MYO3A (11730013_a_at) / Fold change /veh MYO3A (11730013_a_at) / RFU EBF3 (11725865_a_at) / Fold change /veh EBF3 (11725865_a_at) / RFU CAMK2N1 (11719241_x_at) / Fold change /veh CAMK2N1 (11719241_x_at) / RFU C5orf56 (11738088_a_at) / Fold change /veh C5orf56 (11738088_a_at) / RFU OLFML3 (11715873_a_at) / Fold change /veh OLFML3 (11715873_a_at) / RFU LOC100653217 /// NTM (11731650_a_at) / Fold change /veh LOC100653217 /// NTM (11731650_a_at) / RFU MAPK11 (11762145_a_at) / Fold change /veh MAPK11 (11762145_a_at) / RFU FIZ1 (11724087_x_at) / Fold change /veh FIZ1 (11724087_x_at) / RFU OASL (11726364_x_at) / Fold change /veh OASL (11726364_x_at) / RFU SOX15 (11748057_x_at) / Fold change /veh SOX15 (11748057_x_at) / RFU CD79A (11719716_a_at) / Fold change /veh CD79A (11719716_a_at) / RFU HIST1H1D (11736915_at) / Fold change /veh HIST1H1D (11736915_at) / RFU CASKIN2 (11723855_a_at) / Fold change /veh CASKIN2 (11723855_a_at) / RFU LOC730098 (11760151_x_at) / Fold change /veh LOC730098 (11760151_x_at) / RFU OR4N2 (11742367_at) / Fold change /veh OR4N2 (11742367_at) / RFU PRRT2 (11749266_a_at) / Fold change /veh PRRT2 (11749266_a_at) / RFU SNX32 (11753110_a_at) / Fold change /veh SNX32 (11753110_a_at) / RFU CDHR5 (11726645_a_at) / Fold change /veh CDHR5 (11726645_a_at) / RFU RCAN1 (11760418_a_at) / Fold change /veh RCAN1 (11760418_a_at) / RFU FAM167A (11723789_a_at) / Fold change /veh FAM167A (11723789_a_at) / RFU FAM26E (11764081_at) / Fold change /veh FAM26E (11764081_at) / RFU ISYNA1 (11749810_s_at) / Fold change /veh ISYNA1 (11749810_s_at) / RFU ACY1 (11761880_at) / Fold change /veh ACY1 (11761880_at) / RFU 11764098_at / Fold change /veh 11764098_at / RFU SAMD14 (11745864_x_at) / Fold change /veh SAMD14 (11745864_x_at) / RFU NPB (11741838_a_at) / Fold change /veh NPB (11741838_a_at) / RFU TMPRSS6 (11731388_a_at) / Fold change /veh TMPRSS6 (11731388_a_at) / RFU KRTAP10-2 (11738614_at) / Fold change /veh KRTAP10-2 (11738614_at) / RFU ARHGAP8 /// PRR5-ARHGAP8 (11727945_x_at) / Fold change /veh ARHGAP8 /// PRR5-ARHGAP8 (11727945_x_at) / RFU KRTAP5-7 /// NADSYN1 (11734609_at) / Fold change /veh KRTAP5-7 /// NADSYN1 (11734609_at) / RFU RASL12 (11751679_a_at) / Fold change /veh RASL12 (11751679_a_at) / RFU CDKN2B (11736163_a_at) / Fold change /veh CDKN2B (11736163_a_at) / RFU PRF1 (11729649_at) / Fold change /veh PRF1 (11729649_at) / RFU, ZNF638 /// ZNF638-IT1 / Fold change vs veh, ZNF638 /// ZNF638-IT1 / RFU, PANK3 / Fold change vs veh, PANK3 / RFU, SH3YL1 / Fold change vs veh, SH3YL1 / RFU, ZEB2 / Fold change vs veh, ZEB2 / RFU, NRIP1 / Fold change vs veh, NRIP1 / RFU, PTTG1IP / Fold change vs veh, PTTG1IP / RFU, CAPN2 / Fold change vs veh, CAPN2 / RFU, MED14 / Fold change vs veh, MED14 / RFU, SNORA58 / Fold change vs veh, SNORA58 / RFU, C1orf63 / Fold change vs veh, C1orf63 / RFU, LRRFIP1 / Fold change vs veh, LRRFIP1 / RFU, NDUFAF7 / Fold change vs veh, NDUFAF7 / RFU, SLC12A2 / Fold change vs veh, SLC12A2 / RFU, IBTK / Fold change vs veh, IBTK / RFU, ESF1 / Fold change vs veh, ESF1 / Fold change vs veh, TMEM50B / RFU, TAOK1 / Fold change vs veh, TAOK1 / RFU, ACBD3 / Fold change vs veh, ACBD3 / RFU, TMA16 / Fold change vs veh, TMA16 / RFU, RWDD3 / Fold change vs veh, RWDD3 / RFU, BCAT1 / Fold change vs veh, BCAT1 / RFU, EDEM3 / Fold change vs veh, EDEM3 / RFU, TMEM33 / Fold change vs veh, TMEM33 / RFU, WDR75 / Fold change vs veh, WDR75 / RFU, AHCTF1 / Fold change vs veh, AHCTF1 / RFU, TFRC / Fold change vs veh, TFRC / RFU, ZDHHC17 / Fold change vs veh, ZDHHC17 / RFU, NOM1 / Fold change vs veh, NOM1 / RFU, ARL8B / Fold change vs veh, ARL8B / RFU, ZBTB11 / Fold change vs veh, ZBTB11 / RFU, TAMM41 / Fold change vs veh, TAMM41 / RFU, KIAA1704 /// LOC100996395 / Fold change vs veh, KIAA1704 /// LOC100996395 / RFU, ING1 / Fold change vs veh, ING1 / RFU, TRMT61B / Fold change vs veh, TRMT61B / RFU, FUBP3 / Fold change vs veh, FUBP3 / RFU, TP53 / Fold change vs veh, TP53 / RFU, TNKS2 / Fold change vs veh, TNKS2 / RFU, ZFP14 / Fold change vs veh, ZFP14 / RFU, ACTR2 / Fold change vs veh, ACTR2 / RFU, PPP3R1 / Fold change vs veh, PPP3R1 / RFU, PIK3R1 / Fold change vs veh, PIK3R1 / RFU, HNRNPA1 / Fold change vs veh, HNRNPA1 / RFU, RNF170 / Fold change vs veh, RNF170 / RFU, ZNF28 / Fold change vs veh, ZNF28 / RFU, RNGTT / Fold change vs veh, RNGTT / RFU, OGT / Fold change vs veh, OGT / RFU, BRD1 / Fold change vs veh, BRD1 / RFU, MARS / Fold change vs veh, MARS / RFU, ZNF655 / Fold change vs veh, ZNF655 / RFU, FAHD1 / Fold change vs veh, FAHD1 / RFU, BDP1 / Fold change vs veh, BDP1 / RFU, LRRCC1 / Fold change vs veh, LRRCC1 / RFU, ARID1A / Fold change vs veh, ARID1A / RFU, ZNF146 / Fold change vs veh, ZNF146 / RFU, ZNF330 / Fold change vs veh, ZNF330 / RFU, GPN3 / Fold change vs veh, GPN3 / RFU, C9orf123 / Fold change vs veh, C9orf123 / RFU, N4BP2L2 / Fold change vs veh, N4BP2L2 / RFU, ARFIP1 / Fold change vs veh, ARFIP1 / RFU, FAM179B / Fold change vs veh, FAM179B / RFU, BCL10 / Fold change vs veh, BCL10 / RFU, UHRF1BP1L / Fold change vs veh, UHRF1BP1L / RFU, BET1 / Fold change vs veh, BET1 / RFU, CNOT2 / Fold change vs veh, CNOT2 / RFU, ZNF268 / Fold change vs veh, ZNF268 / Fold change vs veh, ZNF507 / RFU, DGCR2 / Fold change vs veh, DGCR2 / RFU, WDSUB1 / Fold change vs veh, WDSUB1 / Fold change vs veh, HSP90B1 /// MIR3652 / RFU, ADSS / Fold change vs veh, ADSS / RFU, GK / Fold change vs veh, GK / RFU, ZNF148 / Fold change vs veh, ZNF148 / RFU, TAF9 / Fold change vs veh, TAF9 / RFU, SLC1A5 / Fold change vs veh, SLC1A5 / RFU, SLMO2 / Fold change vs veh, SLMO2 / RFU, ABCC4 / Fold change vs veh, ABCC4 / RFU, LOC101060439 /// RAP1B / Fold change vs veh, LOC101060439 /// RAP1B / RFU, RFX7 / Fold change vs veh, RFX7 / RFU, GTPBP10 / Fold change vs veh, GTPBP10 / RFU, CNEP1R1 / Fold change vs veh, CNEP1R1 / RFU, BIVM-ERCC5 /// ERCC5 / Fold change vs veh, BIVM-ERCC5 /// ERCC5 / RFU, ILF3 / Fold change vs veh, ILF3 / RFU 11762660_at / Fold change /veh 11762660_at / RFU VCAN (11757783_s_at) / Fold change /veh VCAN (11757783_s_at) / RFU DDX43 (11728927_at) / Fold change /veh DDX43 (11728927_at) / RFU KRT8 (11758188_x_at) / Fold change /veh KRT8 (11758188_x_at) / RFU NKD1 (11759106_at) / Fold change /veh NKD1 (11759106_at) / RFU SRD5A1 (11742802_a_at) / Fold change /veh SRD5A1 (11742802_a_at) / RFU TPSAB1 /// TPSB2 (11721975_s_at) / Fold change /veh TPSAB1 /// TPSB2 (11721975_s_at) / RFU GSTM3 (11746129_a_at) / Fold change /veh GSTM3 (11746129_a_at) / RFU IL23R (11737362_x_at) / Fold change /veh IL23R (11737362_x_at) / RFU TMEM51 (11727254_a_at) / Fold change /veh TMEM51 (11727254_a_at) / RFU PIWIL2 (11732686_x_at) / Fold change /veh PIWIL2 (11732686_x_at) / RFU ORM1 (11744905_x_at) / Fold change /veh ORM1 (11744905_x_at) / RFU CCDC152 (11743942_at) / Fold change /veh CCDC152 (11743942_at) / RFU ECM1 (11717891_a_at) / Fold change /veh ECM1 (11717891_a_at) / RFU IL23R (11748794_a_at) / Fold change /veh IL23R (11748794_a_at) / RFU TNFAIP8L3 (11732012_x_at) / Fold change /veh TNFAIP8L3 (11732012_x_at) / RFU MBOAT4 (11741988_at) / Fold change /veh MBOAT4 (11741988_at) / RFU 11764193_at / Fold change /veh 11764193_at / RFU TMEM53 (11763286_at) / Fold change /veh TMEM53 (11763286_at) / RFU MAGEB2 (11727129_at) / Fold change /veh MAGEB2 (11727129_at) / RFU TMEM200A (11744735_a_at) / Fold change /veh TMEM200A (11744735_a_at) / RFU CCDC152 (11751479_a_at) / Fold change /veh CCDC152 (11751479_a_at) / RFU FAM211A (11726209_a_at) / Fold change /veh FAM211A (11726209_a_at) / RFU RGS16 (11746705_a_at) / Fold change /veh RGS16 (11746705_a_at) / RFU VCAN (11755009_s_at) / Fold change /veh VCAN (11755009_s_at) / RFU RHOB (11743442_s_at) / Fold change /veh RHOB (11743442_s_at) / RFU RGS16 (11720943_a_at) / Fold change /veh RGS16 (11720943_a_at) / RFU RGS16 (11720944_at) / Fold change /veh RGS16 (11720944_at) / RFU, VPS4B / Fold change vs veh, VPS4B / RFU, CREB1 / Fold change vs veh, CREB1 / RFU, DNAJC13 / Fold change vs veh, DNAJC13 / RFU, GNAQ / Fold change vs veh, GNAQ / RFU, CDK5R1 / Fold change vs veh, CDK5R1 / RFU, ZRANB3 / Fold change vs veh, ZRANB3 / RFU, CUL4A / Fold change vs veh, CUL4A / RFU, CCNY / Fold change vs veh, CCNY / RFU, UFL1 / Fold change vs veh, UFL1 / RFU, COG3 / Fold change vs veh, COG3 / RFU, DIAPH2 / Fold change vs veh, DIAPH2 / RFU, SKA2 / Fold change vs veh, SKA2 / RFU, AFF3 / Fold change vs veh, AFF3 / RFU, LMF1 / Fold change vs veh, LMF1 / RFU, IPO11 / Fold change vs veh, IPO11 / RFU, DFFB / Fold change vs veh, DFFB / RFU, FOXP1 / Fold change vs veh, FOXP1 / RFU, CARD8 / Fold change vs veh, CARD8 / RFU, STRN3 / Fold change vs veh, STRN3 / RFU, ADK / Fold change vs veh, ADK / RFU, RASSF2 / Fold change vs veh, RASSF2 / RFU, WIPF1 / Fold change vs veh, WIPF1 / RFU, LARP1B / Fold change vs veh, LARP1B / RFU, RASA1 / Fold change vs veh, RASA1 / RFU, RB1 / Fold change vs veh, RB1 / RFU, PPFIA1 / Fold change vs veh, PPFIA1 / RFU, MAT2A / Fold change vs veh, MAT2A / RFU, CCT5 / Fold change vs veh, CCT5 / RFU, WDR92 / Fold change vs veh, WDR92 / RFU, CUX1 / Fold change vs veh, CUX1 / RFU, TTC7A / Fold change vs veh, TTC7A / RFU, TMEM135 / Fold change vs veh, TMEM135 / RFU, DEPTOR / Fold change vs veh, DEPTOR / RFU, CPM / Fold change vs veh, CPM / RFU, DNAJB6 / Fold change vs veh, DNAJB6 / RFU, CACNA2D3 / Fold change vs veh, CACNA2D3 / RFU, DTX4 / Fold change vs veh, DTX4 / RFU, TFCP2 / Fold change vs veh, TFCP2 / RFU, GMCL1 /// GMCL1P1 / Fold change vs veh, GMCL1 /// GMCL1P1 / RFU, AEBP2 / Fold change vs veh, AEBP2 / RFU, SNHG1 /// SNORD22 /// SNORD25 /// SNORD26 /// SNORD27 /// SNORD28 /// SNORD29 /// SNORD31 / Fold change vs veh, SNHG1 /// SNORD22 /// SNORD25 /// SNORD26 /// SNORD27 /// SNORD28 /// SNORD29 /// SNORD31 / Fold change (Aza/veh), C12orf56 (ProbeSet 11735607_a_at) / Fold change (ACY-1035/veh), C12orf56 (ProbeSet 11735607_a_at) / Fold change (Aza/veh), FGFR1OP (ProbeSet 11751329_s_at) / Fold change (ACY-1035/veh), FGFR1OP (ProbeSet 11751329_s_at) / Fold change (Aza/veh), VPS36 (ProbeSet 11739960_a_at) / Fold change (ACY-1035/veh), VPS36 (ProbeSet 11739960_a_at) / RFU SYPL1 (11715823_x_at) / Fold change /veh SYPL1 (11715823_x_at) / RFU IGFBP7 (11715501_s_at) / Fold change /veh IGFBP7 (11715501_s_at) / RFU REEP3 (11722064_at) / Fold change /veh REEP3 (11722064_at) / RFU IGLL1 (11728026_x_at) / Fold change /veh IGLL1 (11728026_x_at): dose or concentration left out as unconfirmed
Conditions: MV-4-11 cells, 48 hours

Nc1ncn([C@@H]2O[C@H](CO)[C@@H](O)[C@H]2O)c(=O)n1 [azacitidine]
Fold change /veh KRTAP5-7 /// NADSYN1 (11734609_at): 1.00
